Values of other authors in publication PMC4955970, “Stable, synthetic analogs of diadenosine tetraphosphate inhibit rat and human P2X3 receptors and inflammatory pain” (Molecular Pain, 2016).

System: P2X3R
Set-up: method as in PMID 11821019
Conditions: EC50 and IC50 values taken from literature ref 41; cited from earlier work

SMILES: Nc1ncnc2c1ncn2[C@@H]1O[C@H](COP(=O)(O)OP(=O)(O)OP(=O)(O)OP(=O)(O)OC[C@H]2O[C@@H](n3cnc4c(N)ncnc43)[C@H](O)[C@@H]2O)[C@@H](O)[C@H]1O [Ap4A, P^1,P^4-diadenosine tetraphosphate]
- EC50/IC50 index: 11.48

SMILES: Nc1ncnc2c1ncn2[C@@H]1O[C@H](COP(=O)(O)OP(=O)(O)OP(=O)(O)O)[C@@H](O)[C@H]1O [ATP]
- EC50/IC50 index: 15.13
